The text below walks through data of paper PMC6973020, “Quinoline‐Conjugated Ruthenacarboranes: Toward Hybrid Drugs with a Dual Mode of Action” (Chemmedchem, 2019).

Assay [1] concerns LN229 cells. The assay is described as follows: DAPI staining, fluorescence microscopy, LN229. In kind it is cell-based, human. The note with it: LN229, 40 μM, 72 h. On the procedure: (§1) Flow cytometry. For gaining better insights into the mechanisms of action of the ruthenium complexes, MCF‐7 and LN229 cells incubated with an IC50 dose of 3 or 4, were analyzed via flow cytometry. Several staining protocols were carried out in parallel, in independent experiments: i) AnnV/PI for the detection of apoptotic cell death, ii) AO for the detection of acidic vacuoles, iii) ApoStat for checking caspase activation, iv) CFSE for detecting interference with cellular proliferation, and v) DAPI for the detection of morphological signs of apoptosis. Untreated cells or cells treated only with BSA (control) were also measured, as reference for BSA‐free and BSA‐containing drug formulations, respectively. […] Channels FL1 (green emission), FL2 (orange emission) and/or FL3 (dark red emission) were used for fluorescence detection, according to the specific staining agent. Sideward Scatter (SSC) for MCF‐7 cells treated with 4 or BSA−4 was also analyzed, with respect to the control, for detection of shifts of cell granularity. […]
(§2) FCS, 2 mM L‐glutamine, 0.01% sodium pyruvate and antibiotics, at 37 °C in a humidified atmosphere with 5% CO2. […] Cells were counted and seeded in 96‐well plates and incubated overnight, as described above. […]
(§3) Staining Protocols for Flow Cytometric Analysis. […] Finally, cells were washed in PBS, resuspended in PBS (or AnnV‐binding buffer for AnnV/PI), and analysed. […]

The test system of assay [2] is LN229 cells. The assay is described as follows: AnnV/PI double staining, flow cytometry, LN229. In kind it is cell-based, human. Conditions: LN229, 40 μM, 72 h. The method, then: as §1, §2, §3
Background: In flow cytometry, cells or beads pass a laser one at a time.

“closo ‐[3‐(η^6‐p‐Cymene)‐1‐(quinolin‐8‐yl‐acetate)‐3,1,2‐RuC2B9H10] [Compound 4]”: in assay [1], the “morphological features of apoptosis (DAPI)” value is “several typical morphological features of apoptosis”. For the same substance, in assay [2] (control 0.9 %), the “early apoptotic (Ann+/PI−) cells” value worked out at 9.0%. The “late apoptotic (Ann+/PI+) cells” value in assay [2] (control 7.4 %) amounted to 35%.
